Experimental data published in patent US12448363B2, “Kinase inhibitors” (Vidya Therapeutics, Inc., priority 2020, dated 2025).
pIC50: −log10 of the molar value.

How the values were obtained:
[1] = Plasma and total brain concentrations at 1 h post a single oral administration to female C57BL/6 mice; type: in vivo; conditions: mouse, 1 h post single oral 10 mg/kg, LC-MS/MS, read-out: Brain:plasma ratio
Description: Determination of Plasma and Total Brain Concentrations at 1 h Post a Single Oral Administration of Test Compound to Female C57BL/6 Mice
The appropriate amount of test article was dissolved 10% dimethylacetamide (DMA)/90% (20% hydroxypropyl-b-cyclodextrin (HP-β-CD) w/v in water to obtain a final concentration of 1 mg/mL for oral dosing. Sonication, vortex, and homogenization was used as needed. Three female C57BL/6 mice aged 7-9 weeks (20-30 grams) were dosed by oral gavage 10 mg/kg solution of the test article.
Concentrations of representative test compounds in the plasma and brain samples (using plasma and brain homogenate standard curve for all samples appropriately) were analyzed using LC-MS/MS. With respect to the brain:plasma ratio, Table 11 lists the results as follows: • “A” denotes a ratio >0.5; • “B” denotes a ratio between 0.1 and 0.5; and • “C” denotes a ratio <0.1.

BTK = BTK (Homo sapiens, UniProt Q06187); assay: Assay to determine activity against BTK (EZ reader, FLPeptide); type: biochemical; design: purchased Carna; conditions: ATP (1 mM), BTK (2 nM), room temperature for 90 minutes
How it was run: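 Human BTK (2 nM) phosphorylated FLPeptide (1.5 uM) with 1 mM ATP in 50 mM HEPES pH7.5, 10 mM MgCl2, 2 mM DTT, 1 mM EGTA, 0.01% Brij-35, 0.05% BSA; 11-point 3-fold compound dilutions. After 90 min at room temperature, EDTA stop; conversion ratio read on EZ reader, IC50 from curve fit with free top and bottom.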

BTK, sequence (Q06187 whole entry): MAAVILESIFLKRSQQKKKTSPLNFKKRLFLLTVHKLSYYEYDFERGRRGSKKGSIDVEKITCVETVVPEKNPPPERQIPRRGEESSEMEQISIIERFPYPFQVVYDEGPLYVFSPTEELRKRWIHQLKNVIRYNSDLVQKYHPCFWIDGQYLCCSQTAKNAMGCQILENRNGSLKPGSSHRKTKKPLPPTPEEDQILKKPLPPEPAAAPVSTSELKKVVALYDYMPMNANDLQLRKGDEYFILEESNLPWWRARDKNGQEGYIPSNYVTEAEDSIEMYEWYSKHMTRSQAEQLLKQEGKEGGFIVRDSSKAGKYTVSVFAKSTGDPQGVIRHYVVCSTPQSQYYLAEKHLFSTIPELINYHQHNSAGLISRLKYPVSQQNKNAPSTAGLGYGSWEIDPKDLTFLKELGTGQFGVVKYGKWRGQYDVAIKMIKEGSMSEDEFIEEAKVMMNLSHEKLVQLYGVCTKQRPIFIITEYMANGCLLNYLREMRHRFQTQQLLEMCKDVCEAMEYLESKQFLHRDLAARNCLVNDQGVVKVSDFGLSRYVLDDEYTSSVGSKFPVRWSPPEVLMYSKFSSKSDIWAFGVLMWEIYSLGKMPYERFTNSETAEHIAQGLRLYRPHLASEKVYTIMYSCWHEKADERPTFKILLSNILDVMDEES

SMILES | Kp at 1 h [1] | pIC50 (BTK)
C=CC(=O)N1CCc2c(-c3c(F)cc(C(N)=O)c4[nH]c(C)c(Cl)c34)cccc2C1C (racemic) [Compound 22a, 4-(2-acryloyl-1-methyl-1,2,3,4-tetrahydroisoquinolin-5-yl)-3-chloro-5-fluoro-2-methyl-1H-indole-7-carboxamide] | 0.1 to 0.5 | > 8.00
C=CC(=O)N1CCC2CCN(c3c(F)cc(C(N)=O)c4[nH]c(C)c(Cl)c34)CC21 (racemic) [Compound 29, 4-(1-acryloyloctahydro-6H-pyrrolo[2,3-c]pyridin-6-yl)-3-chloro-5-fluoro-2-methyl-1H-indole-7-carboxamide] | 0.1 to 0.5 | 7.00 to 8.00
C=CC(=O)N1CCc2c(cccc2-c2c(F)cc(C(N)=O)c3[nH]c(C)c(Cl)c23)C1 (single isomer, unassigned) [Compound 20b] | 0.1 to 0.5 | > 8.00
C=CC(=O)N1CCC2CCN(c3c(F)cc(C(N)=O)c4[nH]c(C)c(Cl)c34)CC21 (single isomer, unassigned) [Compound 29a, 4-(1-acryloyloctahydro-6H-pyrrolo[2,3-c]pyridin-6-yl)-3-chloro-5-fluoro-2-methyl-1H-indole-7-carboxamide] | 0.1 to 0.5 | 7.00 to 8.00
C=CC(=O)N1CCC2CCN(c3c(F)cc(C(N)=O)c4[nH]c(C)c(C)c34)CC21 (single isomer, unassigned) [Compound 32b, 4-(1-acryloyloctahydro-6H-pyrrolo[2,3-c]pyridin-6-yl)-5-fluoro-2,3-dimethyl-1H-indole-7-carboxamide] | < 0.1 | 7.00 to 8.00
C=CC(=O)N1CCC=C(c2c(F)cc(C(N)=O)c3[nH]c(C)c(Cl)c23)C1 [Compound 1, 4-(1-acryloyl-1,2,5,6-tetrahydropyridin-3-yl)-3-chloro-5-fluoro-2-methyl-1H-indole-7-carboxamide] | < 0.1 | > 8.00
C=CC(=O)N1CCC[C@@H](c2c(F)cc(C(N)=O)c3[nH]c(C)c(Cl)c23)C1 [Compound 2a, (S)-4-(1-acryloylpiperidin-3-yl)-3-chloro-5-fluoro-2-methyl-1H-indole-7-carboxamide] | 0.1 to 0.5 | > 8.00
C=CC(=O)N1CCC[C@H](c2c(F)c(F)c(C(N)=O)c3[nH]c(C)c(F)c23)C1 [Compound 6a, (R)-4-(1-acryloylpiperidin-3-yl)-3,5,6-trifluoro-2-methyl-1H-indole-7-carboxamide] | 0.1 to 0.5 | > 8.00
C=CC(=O)N1CCC[C@@H](c2c(F)c(F)c(C(N)=O)c3[nH]c(C)c(F)c23)C1 [Compound 6b, (S)-4-(1-acryloylpiperidin-3-yl)-3,5,6-trifluoro-2-methyl-1H-indole-7-carboxamide] | 0.1 to 0.5 | > 8.00
C=CC(=O)N1CCC[C@@H](c2c(F)c(F)c(C(N)=O)c3[nH]c(C)c(Cl)c23)C1 [Compound 16, (S)-4-(1-acryloylpiperidin-3-yl)-3-chloro-5,6-difluoro-2-methyl-1H-indole-7-carboxamide] | 0.1 to 0.5 | > 8.00
CC#CC(=O)N[C@H]1C[C@@H](F)CN(c2c(F)cc(C(N)=O)c3[nH]c(C)c(Cl)c23)C1 [Compound 27, 4-((3S,5R)-3-(but-2-ynamido)-5-fluoropiperidin-1-yl)-3-chloro-5-fluoro-2-methyl-1H-indole-7-carboxamide] | 0.1 to 0.5 | > 8.00
CC#CC(=O)N[C@H]1C[C@@H](F)CN(c2c(F)cc(C(N)=O)c3[nH]c(C)c(C)c23)C1 [Compound 33, 4-((3S,5R)-3-(but-2-ynamido)-5-fluoropiperidin-1-yl)-5-fluoro-2,3-dimethyl-1H-indole-7-carboxamide] | < 0.1 | > 8.00
CC#CC(=O)N[C@H]1C[C@H](F)CN(c2c(F)cc(C(N)=O)c3[nH]c(C)c(C)c23)C1 [Compound 35, 4-((3S,5S)-3-(but-2-ynamido)-5-fluoropiperidin-1-yl)-5-fluoro-2,3-dimethyl-1H-indole-7-carboxamide] | < 0.1 | > 8.00
CC#CC(=O)N1CCCC2CN(c3c(F)cc(C(N)=O)c4[nH]c(C)c(Cl)c34)CC21 (stereo not shown) [Compound 40, 4-(1-(but-2-ynoyl)octahydro-6H-pyrrolo[3,4-b]pyridin-6-yl)-3-chloro-5-fluoro-2-methyl-1H-indole-7-carboxamide] | > 0.5 | > 8.00
